In patent publication US7192746B2, “α-Isomaltosyltransferase, process for producing the same and use thereof” (Kabushiki Kaisha Hayashibara Seibutsu Kagaku Kenkyujo, priority 2000, dated 2007):

How the values were obtained:
Assay type in all cases: biochemical
[1] = tested on: α-isomaltosyl-transferring enzyme from Arthrobacter globiformis A19; experiment: Action on saccharides (substrates, TLC); set-up: key: −: there was found no substrate change before and after the enzymatic reaction; +: there were found both the reduction of substrate and the formation of cyclotetrasaccharide after the enzymatic reaction; settings: partially purified enzyme, 2 units/g substrate, 2% (w/v) substrate, 30° C., pH 6.0, 24 hours
From the text: (§1) To examine the saccharides in the supernatant, they were separated from the supernatant by silica gel thin-layer chromatography (abbreviated as “TLC” hereinafter) using, as a developer, a mixture solution of n-butanol, pyridine, and water (=6:4:1), and, as a thin-layer plate, “[…] 60”, an aluminum plate (20×20 cm) for TLC commercialized by […]. The coloration of both the separated total sugars by the sulfuric acid-methanol method and the reducing saccharides by the diphenylamine-aniline method detected a non-reducing saccharide at a position with an Rf value of about 0.31, which was positive on the former detection method but negative on the latter detection method.
(§2) It was tested whether saccharides can be used as substrates for the α-isomaltosyl-transferring enzyme. For the purpose, a solution of maltose, maltotriose, maltotetraose, maltopentaose, maltohexaose, maltoheptaose, isomaltose, isomaltotriose, panose, isomaltosylmaltose, isopanose, α,α-trehalose, kojibiose, nigerose, α,β-trehalose, cellobiose, gentibiose, maltitol, maltotriitol, lactose, sucrose, α-cyclodextrin, β-cyclodextrin, γ-cyclodextrin, soluble starch, pullulan, or dextran was prepared. To each of the above solutions was added two units/g substrate of a purified specimen of either α-isomaltosyl-transferring enzyme from Bacillus globisporus C9 obtained by the method in Experiment 4, Bacillus globisporus C11 obtained by the method in Experiment 7, Bacillus globisporus N75 obtained by the method in Experiment 11, or Arthrobacter ramosus S1 obtained by the method in Experiment 15, or a partially purified α-isomaltosyl-transferring enzyme from Arthrobacter globiformis A19 obtained by the method in Experiment 15. The resulting each solution was adjusted to give a substrate concentration of 2% (w/v) and incubated at 30° C. and pH 6.0 for 24 hours. The enzyme solutions before and after the enzymatic reactions were respectively analyzed on TLC as disclosed in Experiment 1 to confirm whether the enzymes acted on these substrates.

[2] = tested on: α-isomaltosyl-transferring enzyme from Arthrobacter ramosus S1; experiment: Action on saccharides (substrates, TLC); set-up: key: −: there was found no substrate change before and after the enzymatic reaction; +: there were found both the reduction of substrate and the formation of cyclotetrasaccharide after the enzymatic reaction; settings: 2 units/g substrate, 2% (w/v) substrate, 30° C., pH 6.0, 24 hours
From the text: as §1, §2

[3] = tested on: α-isomaltosyl-transferring enzyme from Bacillus globisporus C11; experiment: Action on saccharides (substrates, TLC); set-up: key: −: there was found no substrate change before and after the enzymatic reaction; +: there were found both the reduction of substrate and the formation of cyclotetrasaccharide after the enzymatic reaction; settings: 2 units/g substrate, 2% (w/v) substrate, 30° C., pH 6.0, 24 hours
From the text: as §1, §2

[4] = tested on: α-isomaltosyl-transferring enzyme from Bacillus globisporus C9; experiment: Action on saccharides (substrates, TLC); set-up: key: −: there was found no substrate change before and after the enzymatic reaction; +: there were found both the reduction of substrate and the formation of cyclotetrasaccharide after the enzymatic reaction; settings: 2 units/g substrate, 2% (w/v) substrate, 30° C., pH 6.0, 24 hours
From the text: as §1, §2

[5] = tested on: α-isomaltosyl-transferring enzyme from Bacillus globisporus N75; experiment: Action on saccharides (substrates, TLC); set-up: key: −: there was found no substrate change before and after the enzymatic reaction; +: there were found both the reduction of substrate and the formation of cyclotetrasaccharide after the enzymatic reaction; settings: 2 units/g substrate, 2% (w/v) substrate, 30° C., pH 6.0, 24 hours
From the text: as §1, §2

[6] = tested on: α-isomaltosyl-transferring enzyme from Arthrobacter globiformis A19; experiment: Specificity to transferring acceptor; settings: partially purified enzyme, panose as saccharide donor, 10 units/g substrate, 3.2% (w/v), 30° C., pH 6.0, 24 hours
Summary of the method: (§3)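 Scoring is presence or absence of a transfer product, detected by HPLC for tri- or larger saccharides and by GLC for smaller ones. Reactions: 3.2% (w/v) saccharide with panose as donor in equal amount, 10 units/g substrate of purified or partially purified enzyme, pH 6.0, 30 °C, 24 h.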

[7] = tested on: α-isomaltosyl-transferring enzyme from Arthrobacter ramosus S1; experiment: Specificity to transferring acceptor; settings: panose as saccharide donor, 10 units/g substrate, 3.2% (w/v), 30° C., pH 6.0, 24 hours
Summary of the method: as §3

[8] = tested on: α-isomaltosyl-transferring enzyme from Bacillus globisporus C11; experiment: Specificity to transferring acceptor; settings: panose as saccharide donor, 10 units/g substrate, 3.2% (w/v), 30° C., pH 6.0, 24 hours
Summary of the method: as §3

[9] = tested on: α-isomaltosyl-transferring enzyme from Bacillus globisporus C9; experiment: Specificity to transferring acceptor; settings: panose as saccharide donor, 10 units/g substrate, 3.2% (w/v), 30° C., pH 6.0, 24 hours
Summary of the method: as §3

[10] = tested on: α-isomaltosyl-transferring enzyme from Bacillus globisporus N75; experiment: Specificity to transferring acceptor; settings: panose as saccharide donor, 10 units/g substrate, 3.2% (w/v), 30° C., pH 6.0, 24 hours
Summary of the method: as §3

Structure (SMILES)	Enzymatic action for forming cyclotetrasaccharide, Enzyme of Strain A19 [1]	Enzymatic action for forming cyclotetrasaccharide, Enzyme of Strain S1 [2]	Enzymatic action for forming cyclotetrasaccharide, Enzyme of Strain C11 [3]	Enzymatic action for forming cyclotetrasaccharide, Enzyme of Strain C9 [4]	Enzymatic action for forming cyclotetrasaccharide, Enzyme of Strain N75 [5]	Product of transferring reaction, Enzyme of Stain A19 [6]	Product of transferring reaction, Enzyme of Strain S1 [7]	Product of transferring reaction, Enzyme of Strain C11 [8]	Product of transferring reaction, Enzyme of Strain C9 [9]	Product of transferring reaction, Enzyme of Strain N75 [10]
OC[C@H]1O[C@H](O[C@H]2[C@H](O)[C@@H](O)[C@H](O)O[C@@H]2CO)[C@H](O)[C@@H](O)[C@@H]1O [Maltose, maltose]	−	−	−	−	−	+ (a saccharide-transferred product was formed in an amount of over one percent but below 10% to the total sugars)	+ (a saccharide-transferred product was formed in an amount of over one percent but below 10% to the total sugars)	+ (a saccharide-transferred product was formed in an amount of over one percent but below 10% to the total sugars)	+ (a saccharide-transferred product was formed in an amount of over one percent but below 10% to the total sugars)	+ (a saccharide-transferred product was formed in an amount of over one percent but below 10% to the total sugars)
OC[C@H]1O[C@H](O[C@H]2O[C@H](CO)[C@@H](O)[C@H](O)[C@H]2O)[C@H](O)[C@@H](O)[C@@H]1O [α,α-Trehalose, α,α-trehalose]	−	−	−	−	−	+ (a saccharide-transferred product was formed in an amount of over one percent but below 10% to the total sugars)	+ (a saccharide-transferred product was formed in an amount of over one percent but below 10% to the total sugars)	+ (a saccharide-transferred product was formed in an amount of over one percent but below 10% to the total sugars)	+ (a saccharide-transferred product was formed in an amount of over one percent but below 10% to the total sugars)	+ (a saccharide-transferred product was formed in an amount of over one percent but below 10% to the total sugars)
OC[C@@H](O)[C@@H](O[C@H]1O[C@H](CO)[C@@H](O[C@H]2O[C@H](CO)[C@@H](O)[C@H](O)[C@H]2O)[C@H](O)[C@H]1O)[C@H](O)[C@@H](O)CO [Maltotriitol, maltotriitol]	−	−	−	−	−	+ (a saccharide-transferred product was formed in an amount of over one percent but below 10% to the total sugars)	+ (a saccharide-transferred product was formed in an amount of over one percent but below 10% to the total sugars)	+ (a saccharide-transferred product was formed in an amount of over one percent but below 10% to the total sugars)	+ (a saccharide-transferred product was formed in an amount of over one percent but below 10% to the total sugars)	+ (a saccharide-transferred product was formed in an amount of over one percent but below 10% to the total sugars)
OC[C@H]1O[C@@H](OC[C@H]2OC(O)[C@H](O)[C@@H](O)[C@@H]2O)[C@H](O)[C@@H](O)[C@@H]1O (stereo partly shown) [Gentibiose, gentibiose]	−	−	−	−	−	+ (a saccharide-transferred product was formed in an amount of over one percent but below 10% to the total sugars)	+ (a saccharide-transferred product was formed in an amount of over one percent but below 10% to the total sugars)	++ (a saccharide-transferred product was formed in an amount of over 10% to the total sugars)	++ (a saccharide-transferred product was formed in an amount of over 10% to the total sugars)	++ (a saccharide-transferred product was formed in an amount of over 10% to the total sugars)
